Assay results: US20110071108A1, “Beta-Cyclodextrin Derivatives as Antibacterial Agents” (Pinnacle Pharmaceuticals, Inc., priority 2005, published 2011)

Tests used:
Assay in all cases: Bacterial panel testing, MIC by broth microdilution
Type in all cases: cell-based
Details in all cases: 20-24 hours growth
[1] = tested on: Pseudomonas aeruginosa
Procedure: (§1) One to three colonies of bacteria were picked from an Mueller-Hinton or Brain Heart infusion agar plate (depending on the bacterial strain) and transferred to 3 ml Mueller-Hinton broth or Brain Heart infusion media (depending on the bacterial strain). Bacteria were allowed to grow for 2-4 hours in an incubator at 37° C. Bacteria-inoculated media were dispersed in 0.9% saline to match McFarland standard density. 100 μl standardized inoculation was added to 20 ml media (dilution 1). 10 μl of the new dilution was added to 990 μl media and mixed (dilution 2). 10 μl of dilution 2 was spread on an agar plate and allowed to grow overnight. Colonies were then […].
(§2) Test compound was diluted to 10 μg/ml in dimethylsulfoxide. Four μl of Rifampicin antibiotic was loaded into row H, column 2.
(§3) All wells were then filled with 100 μl of inoculated media (dilution 1 from Example 1). A further 100 μl of the inoculated media was then added to column 2 and the contents are pipetted to thoroughly mix the contents. A full 100 μl was then transferred from column 2 and mixed into column 3. This process was continued from left to right until columns 2-12 were serially diluted, and the final draw from column 12 was discarded. The plates were covered with 3M sealing tape (plates containing Enterococcus faecium were sealed with Air Pore sealing tape) and allowed to grow for 20-24 hours. Cytotoxic wells (clear wells) are then scored and the potency of the compound was determined.

[2] = tested on: Enterococcus faecium
Procedure: as §1, §2, §3

[3] = tested on: Salmonella choleraesuis
Procedure: as §1, §2, §3

[4] = tested on: Eschericia coli
Procedure: as §1, §2, §3

## CC(C)(C)[Si](C)(C)OC1CNC(C(=O)NCC2OC3OC4C(CNC(=O)C5CC(O[Si](C)(C)C(C)(C)C)CN5)OC(OC5C(CNC(=O)C6CC(O[Si](C)(C)C(C)(C)C)CN6)OC(OC6C(CNC(=O)C7CC(O[Si](C)(C)C(C)(C)C)CN7)OC(OC7C(CNC(=O)C8CC(O[Si](C)(C)C(C)(C)C)CN8)OC(OC8C(CNC(=O)C9CC(O[Si](C)(C)C(C)(C)C)CN9)OC(OC9C(CNC(=O)C%10CC(O[Si](C)(C)C(C)(C)C)CN%10)OC(OC2C(O)C3O)C(O)C9O)C(O)C8O)C(O)C7O)C(O)C6O)C(O)C5O)C(O)C4O)C1.O=C(O)C(F)(F)F.O=C(O)C(F)(F)F.O=C(O)C(F)(F)F.O=C(O)C(F)(F)F.O=C(O)C(F)(F)F.O=C(O)C(F)(F)F.O=C(O)C(F)(F)F (stereo not drawn)
[1]
  MIC PA: >200 µg/mL
[2]
  MIC EF: >200 µg/mL

## CCCCCCCCCCNC[C@H]1O[C@@H]2O[C@H]3[C@H](O)[C@@H](O)[C@@H](O[C@H]4[C@H](O)[C@@H](O)[C@@H](O[C@H]5[C@H](O)[C@@H](O)[C@@H](O[C@H]6[C@H](O)[C@@H](O)[C@@H](O[C@H]7[C@H](O)[C@@H](O)[C@@H](O[C@H]8[C@H](O)[C@@H](O)[C@@H](O[C@H]1[C@H](O)[C@H]2O)O[C@@H]8CNCCCCCCCCCC)O[C@@H]7CNCCCCCCCCCC)O[C@@H]6CNCCCCCCCCCC)O[C@@H]5CNCCCCCCCCCC)O[C@@H]4CNCCCCCCCCCC)O[C@@H]3CNCCCCCCCCCC
[1]
  MIC PA: >200 µg/mL
[3]
  MIC SC: >200 µg/mL
[4]
  MIC EC: >200 µg/mL

## Oc1cccnc1NCC1OC2OC3C(CNc4ncccc4O)OC(OC4C(CNc5ncccc5O)OC(OC5C(CNc6ncccc6O)OC(OC6C(CNc7ncccc7O)OC(OC7C(CNc8ncccc8O)OC(OC8C(CNc9ncccc9O)OC(OC1C(O)C2O)C(O)C8O)C(O)C7O)C(O)C6O)C(O)C5O)C(O)C4O)C(O)C3O (stereo not drawn)
[1]
  MIC PA: >200 µg/mL
[3]
  MIC SC: >200 µg/mL
[4]
  MIC EC: >200 µg/mL

## CCCCCCCCCCCC[N+]12CC[N+](CC3OC4OC5C(C[N+]67CC[N+](CCCCCCCCCCCC)(CC6)CC7)OC(OC6C(C[N+]78CC[N+](CCCCCCCCCCCC)(CC7)CC8)OC(OC7C(C[N+]89CC[N+](CCCCCCCCCCCC)(CC8)CC9)OC(OC8C(C[N+]9%10CC[N+](CCCCCCCCCCCC)(CC9)CC%10)OC(OC9C(C[N+]%10%11CC[N+](CCCCCCCCCCCC)(CC%10)CC%11)OC(OC%10C(C[N+]%11%12CC[N+](CCCCCCCCCCCC)(CC%11)CC%12)OC(OC3C(O)C4O)C(O)C%10O)C(O)C9O)C(O)C8O)C(O)C7O)C(O)C6O)C(O)C5O)(CC1)CC2.[Br-].[Br-].[Br-].[Br-].[Br-].[Br-].[Br-].[Br-].[Br-].[Br-].[Br-].[Br-].[Br-].[Br-] (stereo not drawn)
[1]
  MIC PA: >200 µg/mL
[3]
  MIC SC: >200 µg/mL
[4]
  MIC EC: >200 µg/mL

## CCCCCCCCCCCCCCCC[N+]12CC[N+](CC3OC4OC5C(C[N+]67CC[N+](CCCCCCCCCCCCCCCC)(CC6)CC7)OC(OC6C(C[N+]78CC[N+](CCCCCCCCCCCCCCCC)(CC7)CC8)OC(OC7C(C[N+]89CC[N+](CCCCCCCCCCCCCCCC)(CC8)CC9)OC(OC8C(C[N+]9%10CC[N+](CCCCCCCCCCCCCCCC)(CC9)CC%10)OC(OC9C(C[N+]%10%11CC[N+](CCCCCCCCCCCCCCCC)(CC%10)CC%11)OC(OC%10C(C[N+]%11%12CC[N+](CCCCCCCCCCCCCCCC)(CC%11)CC%12)OC(OC3C(O)C4O)C(O)C%10O)C(O)C9O)C(O)C8O)C(O)C7O)C(O)C6O)C(O)C5O)(CC1)CC2.[Br-].[Br-].[Br-].[Br-].[Br-].[Br-].[Br-].[Br-].[Br-].[Br-].[Br-].[Br-].[Br-].[Br-] (stereo not drawn)
[1]
  MIC PA: >200 µg/mL

## OC1C2OC(CNc3cccc4ccccc34)C(OC3OC(CNc4cccc5ccccc45)C(OC4OC(CNc5cccc6ccccc56)C(OC5OC(CNc6cccc7ccccc67)C(OC6OC(CNc7cccc8ccccc78)C(OC7OC(CNc8cccc9ccccc89)C(OC8OC(CNc9cccc%10ccccc9%10)C(O2)C(O)C8O)C(O)C7O)C(O)C6O)C(O)C5O)C(O)C4O)C(O)C3O)C1O (stereo not drawn)
[1]
  MIC PA: >200 µg/mL
[3]
  MIC SC: >200 µg/mL
[4]
  MIC EC: >200 µg/mL

## OC1C2OC(CNc3ccccc3-c3ccccc3)C(OC3OC(CNc4ccccc4-c4ccccc4)C(OC4OC(CNc5ccccc5-c5ccccc5)C(OC5OC(CNc6ccccc6-c6ccccc6)C(OC6OC(CNc7ccccc7-c7ccccc7)C(OC7OC(CNc8ccccc8-c8ccccc8)C(OC8OC(CNc9ccccc9-c9ccccc9)C(O2)C(O)C8O)C(O)C7O)C(O)C6O)C(O)C5O)C(O)C4O)C(O)C3O)C1O (stereo not drawn)
[1]
  MIC PA: >200 µg/mL
[3]
  MIC SC: >200 µg/mL
[4]
  MIC EC: >200 µg/mL

## CCCCCCCCCC[N+]12CC[N+](CC(=O)NCC3OC4OC5C(CNC(=O)C[N+]67CC[N+](CCCCCCCCCC)(CC6)CC7)OC(OC6C(CNC(=O)C[N+]78CC[N+](CCCCCCCCCC)(CC7)CC8)OC(OC7C(CNC(=O)C[N+]89CC[N+](CCCCCCCCCC)(CC8)CC9)OC(OC8C(CNC(=O)C[N+]9%10CC[N+](CCCCCCCCCC)(CC9)CC%10)OC(OC9C(CNC(=O)C[N+]%10%11CC[N+](CCCCCCCCCC)(CC%10)CC%11)OC(OC%10C(CNC(=O)C[N+]%11%12CC[N+](CCCCCCCCCC)(CC%11)CC%12)OC(OC3C(O)C4O)C(O)C%10O)C(O)C9O)C(O)C8O)C(O)C7O)C(O)C6O)C(O)C5O)(CC1)CC2 (stereo not drawn)
[2]
  MIC EF: >200 µg/mL

## OC1C2OC(CNCc3cccc4ccccc34)C(OC3OC(CNCc4cccc5ccccc45)C(OC4OC(CNCc5cccc6ccccc56)C(OC5OC(CNCc6cccc7ccccc67)C(OC6OC(CNCc7cccc8ccccc78)C(OC7OC(CNCc8cccc9ccccc89)C(OC8OC(CNCc9cccc%10ccccc9%10)C(O2)C(O)C8O)C(O)C7O)C(O)C6O)C(O)C5O)C(O)C4O)C(O)C3O)C1O (stereo not drawn)
[1]
  MIC PA: >200 µg/mL
[3]
  MIC SC: >200 µg/mL
[4]
  MIC EC: >200 µg/mL

## C[C@H](NCC1OC2OC3C(CN[C@@H](C)c4ccccc4)OC(OC4C(CN[C@@H](C)c5ccccc5)OC(OC5C(CN[C@@H](C)c6ccccc6)OC(OC6C(CN[C@@H](C)c7ccccc7)OC(OC7C(CN[C@@H](C)c8ccccc8)OC(OC8C(CN[C@@H](C)c9ccccc9)OC(OC1C(O)C2O)C(O)C8O)C(O)C7O)C(O)C6O)C(O)C5O)C(O)C4O)C(O)C3O)c1ccccc1 (stereo partly drawn)
[1]
  MIC PA: >200 µg/mL
[3]
  MIC SC: >200 µg/mL

## Cc1cccc(NCC2OC3OC4C(CNc5cccc(C)c5)OC(OC5C(CNc6cccc(C)c6)OC(OC6C(CNc7cccc(C)c7)OC(OC7C(CNc8cccc(C)c8)OC(OC8C(CNc9cccc(C)c9)OC(OC9C(CNc%10cccc(C)c%10)OC(OC2C(O)C3O)C(O)C9O)C(O)C8O)C(O)C7O)C(O)C6O)C(O)C5O)C(O)C4O)c1 (stereo not drawn)
[1]
  MIC PA: >200 µg/mL
[3]
  MIC SC: >200 µg/mL
[4]
  MIC EC: >200 µg/mL

## Cc1ccccc1NCC1OC2OC3C(CNc4ccccc4C)OC(OC4C(CNc5ccccc5C)OC(OC5C(CNc6ccccc6C)OC(OC6C(CNc7ccccc7C)OC(OC7C(CNc8ccccc8C)OC(OC8C(CNc9ccccc9C)OC(OC1C(O)C2O)C(O)C8O)C(O)C7O)C(O)C6O)C(O)C5O)C(O)C4O)C(O)C3O (stereo not drawn)
[1]
  MIC PA: >200 µg/mL
[3]
  MIC SC: >200 µg/mL
[4]
  MIC EC: >200 µg/mL

## COc1cccc(CCNCC2OC3OC4C(CNCCc5cccc(OC)c5)OC(OC5C(CNCCc6cccc(OC)c6)OC(OC6C(CNCCc7cccc(OC)c7)OC(OC7C(CNCCc8cccc(OC)c8)OC(OC8C(CNCCc9cccc(OC)c9)OC(OC9C(CNCCc%10cccc(OC)c%10)OC(OC2C(O)C3O)C(O)C9O)C(O)C8O)C(O)C7O)C(O)C6O)C(O)C5O)C(O)C4O)c1 (stereo not drawn)
[1]
  MIC PA: >200 µg/mL

## CC(C)CCCCC(C)NCC1OC2OC3C(CNC(C)CCCCC(C)C)OC(OC4C(CNC(C)CCCCC(C)C)OC(OC5C(CNC(C)CCCCC(C)C)OC(OC6C(CNC(C)CCCCC(C)C)OC(OC7C(CNC(C)CCCCC(C)C)OC(OC8C(CNC(C)CCCCC(C)C)OC(OC1C(O)C2O)C(O)C8O)C(O)C7O)C(O)C6O)C(O)C5O)C(O)C4O)C(O)C3O (stereo not drawn)
[1]
  MIC PA: >200 µg/mL

## OC1C2OC(CNCCC3=CCCCC3)C(OC3OC(CNCCC4=CCCCC4)C(OC4OC(CNCCC5=CCCCC5)C(OC5OC(CNCCC6=CCCCC6)C(OC6OC(CNCCC7=CCCCC7)C(OC7OC(CNCCC8=CCCCC8)C(OC8OC(CNCCC9=CCCCC9)C(O2)C(O)C8O)C(O)C7O)C(O)C6O)C(O)C5O)C(O)C4O)C(O)C3O)C1O (stereo not drawn)
[1]
  MIC PA: >200 µg/mL

## OC1C2OC(CNCc3ccc(Cl)cc3)C(OC3OC(CNCc4ccc(Cl)cc4)C(OC4OC(CNCc5ccc(Cl)cc5)C(OC5OC(CNCc6ccc(Cl)cc6)C(OC6OC(CNCc7ccc(Cl)cc7)C(OC7OC(CNCc8ccc(Cl)cc8)C(OC8OC(CNCc9ccc(Cl)cc9)C(O2)C(O)C8O)C(O)C7O)C(O)C6O)C(O)C5O)C(O)C4O)C(O)C3O)C1O (stereo not drawn)
[1]
  MIC PA: >200 µg/mL
[3]
  MIC SC: >200 µg/mL

## Cc1cc(NCC2OC3OC4C(CNc5ccc(C(C)C)c(C)c5)OC(OC5C(CNc6ccc(C(C)C)c(C)c6)OC(OC6C(CNc7ccc(C(C)C)c(C)c7)OC(OC7C(CNc8ccc(C(C)C)c(C)c8)OC(OC8C(CNc9ccc(C(C)C)c(C)c9)OC(OC9C(CNc%10ccc(C(C)C)c(C)c%10)OC(OC2C(O)C3O)C(O)C9O)C(O)C8O)C(O)C7O)C(O)C6O)C(O)C5O)C(O)C4O)ccc1C(C)C (stereo not drawn)
[1]
  MIC PA: >200 µg/mL
[3]
  MIC SC: >200 µg/mL
[4]
  MIC EC: >200 µg/mL

## OC1C2OC(CNCc3ccc(Br)cc3)C(OC3OC(CNCc4ccc(Br)cc4)C(OC4OC(CNCc5ccc(Br)cc5)C(OC5OC(CNCc6ccc(Br)cc6)C(OC6OC(CNCc7ccc(Br)cc7)C(OC7OC(CNCc8ccc(Br)cc8)C(OC8OC(CNCc9ccc(Br)cc9)C(O2)C(O)C8O)C(O)C7O)C(O)C6O)C(O)C5O)C(O)C4O)C(O)C3O)C1O (stereo not drawn)
[4]
  MIC EC: >200 µg/mL
